Experimental data: patent publication US20230393122A1 (priority 2022, published 2023)
Read-outs that look alike come from different tables or passages of the source.

Experiments:
[1] = system: SARS-CoV-2 WT; experiment: Viral load reduction assay in EPSC-derived eSTB cells (qRT-PCR of supernatant viral copies); format: cell-based; details: for IC50: read-out: IC50 for SARS-CoV-2 in eSTBs
[2] = system: SARS-CoV-2; details: Vero E6 cells; read-out: IC50 against SARS-CoV-2 in Vero E6 cells; cited from earlier work
[3] = system: SARS-CoV-2 WT; experiment: Viral load reduction assay in naïve-eSTB cells; format: cell-based; details: compared with EPSC-eSTBs
[4] = system: SARS-CoV-2; details: cited from earlier work
[5] = system: SARS-CoV-2 infected eSTBs; format: cell-based, human
[6] = system: MERS-CoV; format: cell-based; details: 48 h.p.i., efficiency comparable to that in Vero E6 cells

## CC(C)C[C@H](NC(=O)OCc1ccccc1)C(=O)N[C@@H](CC1CCNC1=O)C(O)S(=O)(=O)O (some centres unmarked) [GC376]
[1]
  IC50: 31.2 ± 5.6 nM
[2]
  IC50: 700 nM

## CC(C)C[C@H](NC(=O)OCc1ccccc1)C(=O)N[C@@H](C[C@@H]1CCNC1=O)C(O)S(=O)(=O)[O-].[Na+] (some centres unmarked) [GC376]
[1]; EPSC-derived eSTB cells
  Viral copy in the supernatant, SARS-CoV-2 WT (FIG. 17B): dose-dependent inhibition
[3]
  IC50 against SARS-CoV-2 in naïve-eSTBs: similarly low
[4]
  Survival of mice with a fatal SARS-CoV-2 infection: increases survival
[5]
  eSTB development and differentiation along PI-TB to PI-STB pseudotime trajectory: partially rescued
[6]
  MERS-CoV replication in eSTBs: effectively block

## CCC(CC)COC(=O)[C@H](C)N[P@](=O)(OC[C@H]1O[C@@](C#N)(c2ccc3c(N)ncnn23)[C@H](O)[C@@H]1O)Oc1ccccc1 [remdesivir]
[1]; Severe acute respiratory syndrome coronavirus 2, 48 h
  IC50: 3.2 ± 0.1 nM
